Test results: PubChem BioAssay AID1259246 (Broad Institute, 2017)
Several values for one entry are separate records, joined by “and”; a condition that tells them apart may be missing. Equal values may be shown once. Records with an inconclusive call do not appear. Activity calls are given as the source filed them.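 How the source made its calls: active means valid dose-response fit whose half-maximal growth-inhibiting concentration is at or below a set limit above the top tested dose; inconclusive means flat fit with effect between 30 and 70%, or poor fit; inactive means half-maximal concentration above a set limit.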

Test system: not listed separately
Assay: antibacterial activity against Clostridioides difficile – 10-point retest, dose response (AID 1259246)
Conditions: Clostridioides difficile clinical isolate growth, OD600, 24 h; at 30 µM (top of the series)

| SMILES | activity change, negative = inhibition |
| --- | --- |
| CO[C@H]1CN(C)C(=O)c2ccc(NC(=O)Nc3cc(Cl)cc(Cl)c3)cc2OC[C@@H](C)NC[C@@H]1C | 32.6% (inactive) |

Same assay, conditions: Clostridioides difficile clinical isolate growth, OD600, 24 h; at 110 µM (top of the series)

| SMILES | activity change, negative = inhibition |
| --- | --- |
| C[C@@H]1CN([C@@H](C)CO)C(=O)Cc2cc(NC(=O)CCCN(C)C)ccc2O[C@@H]1CN(C)Cc1ccc(-c2ccccc2)cc1 | 88.3% (inactive) |

Same assay, conditions: Clostridioides difficile clinical isolate growth, OD600, 24 h; at 120 µM (top of the series)

| SMILES | activity change, negative = inhibition |
| --- | --- |
| CO[C@@H]1CN(C)C(=O)c2ccc(NC(=O)Nc3cc(Cl)cc(Cl)c3)cc2OC[C@H](C)NC[C@@H]1C | 4.74% (inactive) |
| O=C(NCC[C@@H]1CC[C@H](NC(=O)C2CC2)[C@@H](CO)O1)Nc1ccc(C(F)(F)F)cc1 | 2.87% (inactive) |
| O=C(NCC[C@H]1CC[C@H](NC(=O)C2CC2)[C@H](CO)O1)Nc1ccc(C(F)(F)F)cc1 | -1.84% (inactive) |
| CO[C@H]1CN(C)C(=O)c2ccc(NC(=O)Nc3cc(Cl)cc(Cl)c3)cc2OC[C@@H](C)NC[C@H]1C | 23.1% (inactive) |
| O=C(NCC[C@@H]1CC[C@H](NC(=O)C2CC2)[C@H](CO)O1)Nc1ccc(C(F)(F)F)cc1 | -0.062% (inactive) |
| Cc1ccc(F)cc1S(=O)(=O)N[C@@H]1CCN(Cc2ccc(OC(C)C)cc2)C1 | 21.4% (inactive) |
| O=C(NCC[C@H]1CC[C@@H](NC(=O)C2CC2)[C@@H](CO)O1)Nc1ccc(C(F)(F)F)cc1 | 4.63% (inactive) |

Test system: Clostridioides difficile clinical isolate growth, OD600, 24 h
Assay: as above
Conditions: not given

| SMILES | IC50 |
| --- | --- |
| CO[C@@H]1CN(C)C(=O)c2ccc(NC(=O)Nc3cc(Cl)cc(Cl)c3)cc2OC[C@H](C)NC[C@@H]1C | 74.6 µM |
| O=C(NCC[C@@H]1CC[C@H](NC(=O)C2CC2)[C@@H](CO)O1)Nc1ccc(C(F)(F)F)cc1 | 8.56 µM |
| O=C(NCC[C@H]1CC[C@H](NC(=O)C2CC2)[C@H](CO)O1)Nc1ccc(C(F)(F)F)cc1 | 28.4 µM |
| CO[C@H]1CN(C)C(=O)c2ccc(NC(=O)Nc3cc(Cl)cc(Cl)c3)cc2OC[C@@H](C)NC[C@H]1C | 11.6 µM |
| O=C(NCC[C@@H]1CC[C@H](NC(=O)C2CC2)[C@H](CO)O1)Nc1ccc(C(F)(F)F)cc1 | 15 µM |
| Cc1ccc(F)cc1S(=O)(=O)N[C@@H]1CCN(Cc2ccc(OC(C)C)cc2)C1 | 29.6 µM |
| C[C@@H]1CN([C@@H](C)CO)C(=O)c2cccc(NC(=O)Nc3ccccc3)c2O[C@@H]1CN(C)Cc1ccc(C(F)(F)F)cc1 | 54.2 µM and 28 µM |
| CO[C@H](CN(C)S(=O)(=O)c1cn(C)cn1)[C@@H](C)CN(C(=O)Nc1ccc(C(F)(F)F)cc1)[C@H](C)CO | 12.6 µM |
| CO[C@H]1CN(C)C(=O)c2ccc(NC(=O)Nc3ccc(Cl)c(Cl)c3)cc2OC[C@H](C)NC[C@H]1C | 14.9 µM and 8.28 µM |
| CO[C@@H]1CN(C)C(=O)c2cc(NC(=O)Nc3cc(Cl)cc(Cl)c3)ccc2OC[C@H](C)NC[C@@H]1C | 37.8 µM and 35.6 µM |
| C[C@H](CO)N1C[C@H](C)[C@@H](CN(C)Cc2ccc(C(=O)O)cc2)Oc2cc(/C=C/c3ccccc3)ccc2S1(=O)=O | > 120 µM (inactive) |
| CO[C@@H]1CN(C)C(=O)c2ccc(NC(=O)Nc3cc(Cl)cc(Cl)c3)cc2OC[C@H](C)NC[C@H]1C | 153 µM and 36.2 µM |
| O=C(NCC[C@H]1CC[C@H](NC(=O)C2CC2)[C@@H](CO)O1)Nc1ccc(C(F)(F)F)cc1 | 15.4 µM |
| CO[C@H]1CN(C)C(=O)c2cc(NC(=O)Nc3ccc(Cl)c(Cl)c3)ccc2OC[C@@H](C)NC[C@H]1C | 14.9 µM and 13.1 µM |
| COc1ccc(S(=O)(=O)Nc2ccc3c(c2)C(=O)N([C@@H](C)CO)C[C@H](C)[C@@H](CN(C)Cc2ccc4c(c2)OCO4)OCCCC[C@@H](C)O3)cc1 | 12 µM |
| CO[C@H]1CN(C)C(=O)c2ccc(NC(=O)Nc3ccc(Cl)c(Cl)c3)cc2OC[C@H](C)NC[C@@H]1C | 37.6 µM |
| CO[C@@H]1CN(C)C(=O)c2cc(NC(=O)Nc3ccc(Cl)c(Cl)c3)ccc2OC[C@@H](C)NC[C@@H]1C | 13.7 µM and 26.6 µM |
| O=C(NCC[C@@H]1CC[C@H](NC(=O)Nc2cc(F)ccc2F)[C@H](CO)O1)Nc1ccc(Cl)cc1 | > 240 µM (inactive) |
| CNC[C@H]1Oc2cc(C#CC3CCCCC3)ccc2S(=O)(=O)N([C@H](C)CO)C[C@@H]1C | 63.8 µM |
| CO[C@@H]1CN(C)C(=O)c2cc(NC(=O)Nc3ccc(Cl)c(Cl)c3)ccc2OC[C@H](C)NC[C@@H]1C | 17.8 µM and 12.5 µM |
| COc1ccc(S(=O)(=O)N(C)C[C@H]2Oc3ccc(NC(=O)Nc4ccc(C(F)(F)F)cc4)cc3C(=O)N([C@@H](C)CO)C[C@@H]2C)cc1 | 51.2 µM |
| C[C@@H]1CCCCO[C@H](CN(C)CC2CCCCC2)[C@H](C)CN([C@H](C)CO)C(=O)c2cc(NC(=O)Nc3ccc(C(F)(F)F)cc3)ccc2O1 | 5.06 µM and 44.8 µM and 31.8 µM |

| SMILES | IC50 |
| --- | --- |
| CO[C@@H]1CN(C)C(=O)c2ccc(NC(=O)c3ccc(-c4ccccc4)cc3)cc2OC[C@@H](C)NC[C@@H]1C | 62.8 µM |
| C[C@H]1CN([C@@H](C)CO)S(=O)(=O)c2ccc(C#CCC3CCCC3)cc2O[C@@H]1CN(C)C | 72.5 µM |
| CO[C@H]1CN(C)C(=O)c2cc(NC(=O)Nc3ccc(Cl)c(Cl)c3)ccc2OC[C@H](C)NC[C@@H]1C | 15.1 µM and 73 µM |
| CNC[C@@H]1Oc2cc(C#CCC3CCCC3)ccc2S(=O)(=O)N([C@H](C)CO)C[C@H]1C | 68.6 µM |
| C[C@@H]1CN([C@@H](C)CO)C(=O)c2cc(NC(=O)Nc3ccc(C(F)(F)F)cc3)ccc2O[C@@H](C)CCCCO[C@H]1CN(C)CC1CCCCC1 | 10.9 µM and 2.15 µM |
| C[C@@H]1CN([C@@H](C)CO)C(=O)Cc2cc(NC(=O)CCCN(C)C)ccc2O[C@@H]1CN(C)Cc1ccc(-c2ccccc2)cc1 | 7.29 µM |
| CO[C@@H](CN(C)S(=O)(=O)c1cn(C)cn1)[C@@H](C)CN(C(=O)Nc1ccc(C(F)(F)F)cc1)[C@H](C)CO | 24.7 µM |
| O=C(C[C@@H]1CC[C@H]2[C@@H](COC[C@H](O)CN2S(=O)(=O)c2ccccc2)O1)NCC1CCCCC1 | 35.1 µM |
| C[C@H]1CN([C@@H](C)CO)S(=O)(=O)c2ccc(C#CCC3CCCC3)cc2O[C@H]1CN(C)C | 70.9 µM |
| C[C@@H]1CN([C@H](C)CO)C(=O)Cc2cc(NC(=O)CCCN(C)C)ccc2O[C@H]1CN(C)Cc1ccc(-c2ccccc2)cc1 | 74.7 µM and 48 µM |
| C[C@@H]1CCCCO[C@@H](CN(C)CC2CCCCC2)[C@@H](C)CN([C@@H](C)CO)C(=O)c2cc(NC(=O)Nc3ccc(C(F)(F)F)cc3)ccc2O1 | 50.2 µM and 17.8 µM |
| Cc1ccc(-c2ccc3c(c2)O[C@@H](CN(C)Cc2ccc(C(=O)O)cc2)[C@H](C)CN([C@H](C)CO)S3(=O)=O)cc1 | 97 µM |
| C[C@H]1CN([C@@H](C)CO)C(=O)c2ccccc2-c2ccccc2CO[C@@H]1CN(C)Cc1ccccc1C(F)(F)F | 13.6 µM |
| Cc1noc(C)c1NC(=O)Nc1cccc2c1O[C@H](CN(C)Cc1ccc(Oc3ccccc3)cc1)[C@H](C)CN([C@@H](C)CO)C2=O | 57.4 µM and 36.1 µM |
| CO[C@H](CN(C)C(=O)C1CCOCC1)[C@@H](C)CN(C(=O)Nc1ccc(C(F)(F)F)cc1)[C@H](C)CO | 14.5 µM |
| C[C@@H]1CN([C@@H](C)CO)C(=O)c2cc(NC(=O)Nc3cccc4ccccc34)ccc2O[C@@H](C)CCCCO[C@H]1CN(C)CC1CCCCC1 | 77.1 µM |
| O=C(NCC[C@H]1CC[C@@H](NC(=O)C2CC2)[C@@H](CO)O1)Nc1ccc(C(F)(F)F)cc1 | 8.52 µM |
| CO[C@H]1CN(C)C(=O)c2ccc(NC(=O)Nc3cc(Cl)cc(Cl)c3)cc2OC[C@H](C)NC[C@H]1C | 25.6 µM and 69.2 µM |
| CO[C@@H](CN(C)C(=O)C1CCOCC1)[C@@H](C)CN(C(=O)Nc1ccc(C(F)(F)F)cc1)[C@@H](C)CO | 38.8 µM |
| C[C@@H]1CN([C@@H](C)CO)C(=O)c2cccc(NS(=O)(=O)c3ccccc3)c2O[C@@H]1CN(C)Cc1ccc(-c2ccccc2)cc1 | 62.5 µM |
| Cc1cc(C(=O)Nc2cccc3c2O[C@@H](CN(C)Cc2ccc(-c4ccccc4)cc2)[C@H](C)CN([C@@H](C)CO)C3=O)n(C)n1 | 17.5 µM |
| CO[C@@H](CN(C)C(=O)C1CCOCC1)[C@@H](C)CN(C(=O)Nc1ccc(C(F)(F)F)cc1)[C@H](C)CO | 4.1 µM |

| SMILES | IC50 |
| --- | --- |
| C[C@@H]1CN([C@@H](C)CO)C(=O)c2cccc(NC(=O)Nc3ccc(C(F)(F)F)cc3)c2O[C@@H]1CN(C)C(=O)Nc1ccc(F)cc1 | 13.9 µM and > 240 µM (inactive) |
| Cc1ccc(S(=O)(=O)Nc2ccc3c(c2)C(=O)N([C@@H](C)CO)C[C@H](C)[C@@H](CN(C)Cc2ccc4c(c2)OCO4)OCCCC[C@@H](C)O3)cc1 | 17.6 µM |
| C[C@@H]1CN([C@H](C)CO)S(=O)(=O)c2ccc(C#CCC3CCCC3)cc2O[C@H]1CN(C)C | 69.3 µM |
| CO[C@H]1CN(C)C(=O)c2ccc(NC(=O)Nc3cc(Cl)cc(Cl)c3)cc2OC[C@@H](C)NC[C@@H]1C | 34.1 µM |
| CO[C@@H](CN(C)C(=O)C1CCOCC1)[C@H](C)CN(C(=O)Nc1ccc(C(F)(F)F)cc1)[C@@H](C)CO | 23.4 µM |
| C[C@@H]1CN([C@@H](C)CO)C(=O)c2cccc(NC(=O)Nc3ccc4c(c3)OCO4)c2O[C@@H]1CN(C)Cc1ccc(Oc2ccccc2)cc1 | < 0.26 µM |
| C[C@@H]1CN([C@@H](C)CO)C(=O)c2cccc(NC(=O)Nc3ccc(F)cc3)c2O[C@@H]1CN(C)Cc1ccc(C(F)(F)F)cc1 | 13 µM and 3.27 µM and 6.22 µM |
| CCS(=O)(=O)N1[C@H](CO)[C@H](c2ccc(C#CCC3CCCC3)cc2)[C@@H]1C#N | 80.2 µM |
| CC(C)CC#Cc1ccc2c(c1)O[C@H](CN(C)Cc1ccc(C(=O)O)cc1)[C@@H](C)CN([C@H](C)CO)S2(=O)=O | 42.9 µM |
| O=C(C[C@H]1CC[C@@H]2[C@H](COC[C@@H](O)CN2S(=O)(=O)c2ccccc2)O1)NCC1CCCCC1 | 52.4 µM |
| COc1ccc(NC(=O)Nc2cccc3c2O[C@H](CN(C)Cc2ccc(Oc4ccccc4)cc2)[C@H](C)CN([C@@H](C)CO)C3=O)cc1 | 2.47 µM and 0.531 µM and 0.465 µM |
| CO[C@H]1CN(C)C(=O)c2cc(NC(=O)Nc3cc(Cl)cc(Cl)c3)ccc2OC[C@@H](C)NC[C@@H]1C | 33.9 µM and 6.17 µM |
| C[C@H]1CN([C@@H](C)CO)C(=O)c2cccc(NC(=O)Nc3ccc(C(F)(F)F)cc3)c2O[C@H]1CN(C)Cc1ccc(-c2ccccc2)cc1 | 116 µM |
| C[C@@H]1CN([C@H](C)CO)S(=O)(=O)c2ccc(/C=C/c3ccccc3)cc2O[C@H]1CN(C)Cc1ccc(C(=O)O)cc1 | 6.11 µM |
| COc1ccc(CN(C)C[C@H]2OCCCC[C@H](C)Oc3ccc(NC(=O)Nc4ccc(C(F)(F)F)cc4)cc3C(=O)N([C@@H](C)CO)C[C@@H]2C)cc1 | 67.7 µM |
| COc1ccc(CN(C)C[C@@H]2OCCCC[C@H](C)Oc3ccc(NC(=O)Nc4cccc5ccccc45)cc3C(=O)N([C@H](C)CO)C[C@H]2C)cc1 | 87.9 µM |
| C[C@@H]1CN([C@@H](C)CO)C(=O)c2ccccc2-c2ccccc2CO[C@H]1CN(C)Cc1ccccc1C(F)(F)F | 19.5 µM |
| C[C@@H]1CN([C@H](C)CO)S(=O)(=O)c2ccc(/C=C/c3ccccc3)cc2O[C@@H]1CN(C)Cc1ccc(C(=O)O)cc1 | 153 µM |
| C[C@@H]1CCCCO[C@H](CN(C)Cc2ccc3c(c2)OCO3)[C@@H](C)CN([C@@H](C)CO)C(=O)c2cc(NS(=O)(=O)c3cccs3)ccc2O1 | 33.5 µM |
| C[C@@H]1CN([C@@H](C)CO)C(=O)c2cccc(NC(=O)Nc3ccc(C(F)(F)F)cc3)c2O[C@@H]1CN(C)Cc1ccc(-c2ccccc2)cc1 | 0.3 µM and 1.52 µM and 0.654 µM |
| C[C@@H]1CN([C@@H](C)CO)C(=O)c2cccc(NC(=O)Nc3ccccc3)c2O[C@@H]1CN(C)Cc1ccc(-c2ccccc2)cc1 | 3.3 µM and 1.93 µM and 5.49 µM |
| O=C(NCC[C@H]1CC[C@H](NS(=O)(=O)c2ccc(F)cc2)[C@@H](CO)O1)Nc1ccc(Cl)cc1 | 26.6 µM |
